# Patent US12662479B2 (Foghorn Therapeutics Inc., priority 2020, dated 2026)
# How the values were obtained:
# HiBit-BRM fusion protein = target: T1, HiBit-BRM fusion protein (Homo sapiens, UniProt P51531); experiment: HiBiT-BRM cell-based degradation assay (Nano-Glo HiBiT Lytic Detection, 24 h); details: HeLa cells expressing HiBiT-BRM; for DC50: read-out: BRM HiBit Degradation IC50; for BRM HiBit Degradation Maximum measured: top dose 30 μM
# T1 construct: expressed in transfected cells
# How it was run: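 HeLa cells stably expressing HiBiT-BRM were dosed with compounds (10-point 3-fold dilutions, 30 μM final top dose, duplicate) for 24 h. HiBiT signal was read by lytic LgBiT complementation luminescence. Percent degradation was normalised to DMSO (high control) and 2 μM of a reference BRM/BRG1 degrader (low control).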
# [1] = target: T2, HiBit-BRG1 fusion protein (Homo sapiens, UniProt P51532); experiment: HiBiT-BRG1 cell-based degradation assay (Nano-Glo HiBiT Lytic Detection, 24 h); details: HeLa cells expressing HiBit-BRG1 and LgBit; for DC50: read-out: BRG1 HiBit Degradation IC50; for Dmax: HeLa, top dose 30 μM, read-out: BRG1 HiBit Degradation Maximum measured
# T2 construct: expressed in transfected cells
# How it was run: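 Stable HeLa line expressing HiBiT-BRG1 and LgBiT, seeded at 5000 cells/well; luminescence read after lytic Nano-Glo HiBiT reagent and 10 min shaking at RT. % degradation normalised between DMSO (high control) and 2 μM reference BRM/BRG1 degrader (low control).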
# T2 sequence (P51532 whole entry, the tested form may be a part): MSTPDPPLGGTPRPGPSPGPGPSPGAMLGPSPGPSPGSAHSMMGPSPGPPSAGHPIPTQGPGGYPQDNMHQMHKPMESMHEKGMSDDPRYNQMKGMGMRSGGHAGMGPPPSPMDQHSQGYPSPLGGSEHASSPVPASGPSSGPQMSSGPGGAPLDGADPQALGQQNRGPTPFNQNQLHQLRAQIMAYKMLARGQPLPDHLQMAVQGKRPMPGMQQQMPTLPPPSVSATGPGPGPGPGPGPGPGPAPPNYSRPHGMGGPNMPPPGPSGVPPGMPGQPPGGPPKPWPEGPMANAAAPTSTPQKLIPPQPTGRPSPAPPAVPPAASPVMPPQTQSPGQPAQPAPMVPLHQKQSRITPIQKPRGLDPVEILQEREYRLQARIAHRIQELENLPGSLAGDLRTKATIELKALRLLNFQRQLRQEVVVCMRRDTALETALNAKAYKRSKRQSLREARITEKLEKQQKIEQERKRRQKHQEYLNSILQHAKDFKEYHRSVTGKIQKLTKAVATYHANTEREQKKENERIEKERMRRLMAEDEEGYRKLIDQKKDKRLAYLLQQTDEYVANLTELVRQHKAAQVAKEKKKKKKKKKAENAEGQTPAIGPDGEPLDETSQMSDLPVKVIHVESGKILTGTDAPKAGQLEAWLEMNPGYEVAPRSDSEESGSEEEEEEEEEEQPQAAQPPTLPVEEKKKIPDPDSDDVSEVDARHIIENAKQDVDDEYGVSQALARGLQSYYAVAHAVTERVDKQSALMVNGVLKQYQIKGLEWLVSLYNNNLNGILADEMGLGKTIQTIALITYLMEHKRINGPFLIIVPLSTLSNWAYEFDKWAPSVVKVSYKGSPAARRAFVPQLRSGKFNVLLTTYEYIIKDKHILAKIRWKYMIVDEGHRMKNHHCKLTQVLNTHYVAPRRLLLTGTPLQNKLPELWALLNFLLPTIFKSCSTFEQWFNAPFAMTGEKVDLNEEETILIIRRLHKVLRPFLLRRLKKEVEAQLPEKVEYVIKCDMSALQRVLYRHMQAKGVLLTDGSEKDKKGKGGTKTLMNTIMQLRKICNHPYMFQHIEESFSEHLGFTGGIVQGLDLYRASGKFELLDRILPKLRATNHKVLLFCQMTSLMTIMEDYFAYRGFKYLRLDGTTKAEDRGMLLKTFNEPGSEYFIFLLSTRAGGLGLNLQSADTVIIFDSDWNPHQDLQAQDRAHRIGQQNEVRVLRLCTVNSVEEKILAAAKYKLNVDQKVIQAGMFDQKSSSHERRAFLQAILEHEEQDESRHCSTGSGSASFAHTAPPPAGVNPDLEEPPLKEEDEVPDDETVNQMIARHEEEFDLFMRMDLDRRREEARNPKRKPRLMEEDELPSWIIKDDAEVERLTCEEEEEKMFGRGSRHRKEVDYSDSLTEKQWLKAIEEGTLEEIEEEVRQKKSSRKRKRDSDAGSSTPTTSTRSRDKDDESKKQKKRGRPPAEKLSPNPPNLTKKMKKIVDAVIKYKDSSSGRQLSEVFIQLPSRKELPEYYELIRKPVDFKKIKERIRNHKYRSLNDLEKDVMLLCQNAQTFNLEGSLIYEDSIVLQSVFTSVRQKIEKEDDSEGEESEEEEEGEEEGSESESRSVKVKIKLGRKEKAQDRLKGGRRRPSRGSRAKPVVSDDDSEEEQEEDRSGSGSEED
# T1 sequence (P51531 whole entry, the tested form may be a part): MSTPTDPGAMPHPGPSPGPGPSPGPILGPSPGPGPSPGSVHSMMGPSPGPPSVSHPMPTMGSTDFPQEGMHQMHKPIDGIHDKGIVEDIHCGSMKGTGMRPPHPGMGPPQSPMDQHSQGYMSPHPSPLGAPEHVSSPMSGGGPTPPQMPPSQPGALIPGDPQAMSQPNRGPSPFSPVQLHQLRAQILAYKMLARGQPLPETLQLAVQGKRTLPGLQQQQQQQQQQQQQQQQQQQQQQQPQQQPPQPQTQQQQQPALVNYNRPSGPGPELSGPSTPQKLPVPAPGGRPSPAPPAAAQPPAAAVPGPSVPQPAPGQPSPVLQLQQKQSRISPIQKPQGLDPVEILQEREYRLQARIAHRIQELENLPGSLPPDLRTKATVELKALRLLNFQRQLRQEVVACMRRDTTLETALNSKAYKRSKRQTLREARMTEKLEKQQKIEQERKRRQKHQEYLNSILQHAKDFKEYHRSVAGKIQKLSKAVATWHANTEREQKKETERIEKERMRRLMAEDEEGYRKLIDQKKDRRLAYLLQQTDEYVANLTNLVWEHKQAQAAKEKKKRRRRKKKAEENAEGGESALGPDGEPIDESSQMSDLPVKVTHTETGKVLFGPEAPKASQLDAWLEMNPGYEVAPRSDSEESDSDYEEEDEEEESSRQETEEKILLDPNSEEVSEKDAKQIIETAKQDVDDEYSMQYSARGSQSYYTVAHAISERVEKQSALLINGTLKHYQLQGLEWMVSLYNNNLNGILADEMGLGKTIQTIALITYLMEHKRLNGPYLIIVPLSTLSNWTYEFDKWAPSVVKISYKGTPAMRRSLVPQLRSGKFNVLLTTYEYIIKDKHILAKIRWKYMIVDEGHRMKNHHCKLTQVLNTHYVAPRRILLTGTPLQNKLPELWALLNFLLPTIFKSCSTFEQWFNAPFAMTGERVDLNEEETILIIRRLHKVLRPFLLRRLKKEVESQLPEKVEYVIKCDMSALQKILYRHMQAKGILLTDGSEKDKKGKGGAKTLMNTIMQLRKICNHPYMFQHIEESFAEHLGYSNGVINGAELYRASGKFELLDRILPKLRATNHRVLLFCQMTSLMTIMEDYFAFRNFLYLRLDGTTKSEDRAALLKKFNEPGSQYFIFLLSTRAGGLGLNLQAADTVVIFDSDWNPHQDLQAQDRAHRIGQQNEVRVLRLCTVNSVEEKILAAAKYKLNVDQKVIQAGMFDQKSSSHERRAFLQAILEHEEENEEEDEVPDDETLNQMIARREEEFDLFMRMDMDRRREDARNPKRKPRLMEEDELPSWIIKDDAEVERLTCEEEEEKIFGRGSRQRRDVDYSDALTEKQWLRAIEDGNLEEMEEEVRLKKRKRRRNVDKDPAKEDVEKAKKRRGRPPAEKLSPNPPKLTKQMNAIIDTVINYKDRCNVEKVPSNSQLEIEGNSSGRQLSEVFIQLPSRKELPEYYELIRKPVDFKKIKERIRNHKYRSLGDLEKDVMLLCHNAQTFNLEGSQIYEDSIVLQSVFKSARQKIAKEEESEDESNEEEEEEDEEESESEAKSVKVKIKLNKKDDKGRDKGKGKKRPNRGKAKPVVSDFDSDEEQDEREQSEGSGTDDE
DC50 (HiBit-BRM fusion protein),BRM HiBit Degradation Maximum measured (HiBit-BRM fusion protein),DC50 [1],Dmax [1],SMILES
> 10 µM,C (‘C’ = Maximum degradation <50%),> 10 µM,< 50%,"CS(=O)(=O)n1ccc(C(=O)N[C@@H](CCOCCCC(=O)NCCOCCOCCOCCNC(=O)COc2ccc3c(c2)C(=O)N(C2CCC(=O)NC2=O)C3=O)C(=O)Nc2nc(-c3ccccc3)cs2)c1 (stereo partly drawn) [Compound 273, (2S)-4-(3-[[2-(2-[2-[2-(2-[[2-(2,6-dioxopiperidin-3-yl)-1,3-dioxoisoindol-5-yl]oxy]acetamido)ethoxy]ethoxy]ethoxy)ethyl]carbamoyl]propoxy)-2-[(1-methanesulfonylpyrrol-3-yl)formamido]-N-(4-phenyl-1,3-thiazol-2-yl)butanamide]"
> 10 µM,C (‘C’ = Maximum degradation <50%),> 10 µM,< 50%,"CS(=O)(=O)n1ccc(C(=O)N[C@@H](CCOCCCC(=O)NCCOCCOCCNC(=O)COc2ccc3c(c2)C(=O)N(C2CCC(=O)NC2=O)C3=O)C(=O)Nc2nc(-c3ccccc3)cs2)c1 (stereo partly drawn) [Compound 274, (2S)-4-[3-[(2-[2-[2-(2-[[2-(2,6-dioxopiperidin-3-yl)-1,3-dioxoisoindol-5-yl]oxy]acetamido)ethoxy]ethoxy]ethyl)carbamoyl]propoxy]-2-[(1-methanesulfonylpyrrol-3-yl)formamido]-N-(4-phenyl-1,3-thiazol-2-yl)butanamide]"
> 10 µM,C (‘C’ = Maximum degradation <50%),> 10 µM,< 50%,"CS(=O)(=O)n1ccc(C(=O)N[C@@H](CCOCCCC(=O)NCCOc2ccc3c(c2)C(=O)N(C2CCC(=O)NC2=O)C3=O)C(=O)Nc2nc(-c3ccccc3)cs2)c1 (stereo partly drawn) [Compound 280, (2S)-4-[3-[(2-[[2-(2,6-dioxopiperidin-3-yl)-1,3-dioxoisoindol-5-yl]oxy]ethyl)carbamoyl]propoxy]-2-[(1-methanesulfonylpyrrol-3-yl)formamido]-N-(4-phenyl-1,3-thiazol-2-yl)butanamide]"
> 10 µM,C (‘C’ = Maximum degradation <50%),> 10 µM,< 50%,"CS(=O)(=O)n1ccc(C(=O)N[C@@H](CCOCCCC(=O)NCCCCNc2ccc3c(c2)C(=O)N(C2CCC(=O)NC2=O)C3=O)C(=O)Nc2nc(-c3ccccc3)cs2)c1 (stereo partly drawn) [Compound 282, (2S)-4-[3-[(4-[[2-(2,6-dioxopiperidin-3-yl)-1,3-dioxoisoindol-5-yl]amino]butyl)carbamoyl]propoxy]-2-[(1-methanesulfonylpyrrol-3-yl)formamido]-N-(4-phenyl-1,3-thiazol-2-yl)butanamide]"

# The next lines start with the compound.
SMILES,DC50 (HiBit-BRM fusion protein),BRM HiBit Degradation Maximum measured (HiBit-BRM fusion protein),DC50 [1],Dmax [1]
"CS(=O)(=O)n1ccc(C(=O)N[C@@H](CCOCCCC(=O)NCCCCS(=O)(=O)CCCNc2cccc3c2C(=O)N(C2CCC(=O)NC2=O)C3=O)C(=O)Nc2nc(-c3ccccc3)cs2)c1 (stereo partly drawn) [Compound 275, (2S)-4-(3-[[4-(3-[[2-(2,6-dioxopiperidin-3-yl)-1,3-dioxoisoindol-4-yl]amino]propanesulfonyl)butyl]carbamoyl]propoxy)-2-[(1-methanesulfonylpyrrol-3-yl)formamido]-N-(4-phenyl-1,3-thiazol-2-yl)butanamide]",> 10 µM,C (‘C’ = Maximum degradation <50%),> 10 µM,< 50%
"CN(CCNC(=O)CCCOCC[C@H](NC(=O)c1ccn(S(C)(=O)=O)c1)C(=O)Nc1nc(-c2ccccc2)cs1)CCNc1cccc2c1C(=O)N(C1CCC(=O)NC1=O)C2=O (stereo partly drawn) [Compound 276, (2S)-4-[3-([2-[(2-[[2-(2,6-dioxopiperidin-3-yl)-1,3-dioxoisoindol-4-yl]amino]ethyl)(methyl)amino]ethyl]carbamoyl)propoxy]-2-[(1-methanesulfonylpyrrol-3-yl)formamido]-N-(4-phenyl-1,3-thiazol-2-yl)butanamide; formic acid]",> 10 µM,C (‘C’ = Maximum degradation <50%),> 10 µM,< 50%
"CS(=O)(=O)n1ccc(C(=O)N[C@@H](CCOCCCC(=O)NCCC2CCN(c3ccc4c(c3)C(=O)N(C3CCC(=O)NC3=O)C4=O)CC2)C(=O)Nc2nc(-c3ccccc3)cs2)c1 (stereo partly drawn) [Compound 277, (2S)-4-[3-[(2-[1-[2-(2,6-dioxopiperidin-3-yl)-1,3-dioxoisoindol-5-yl]piperidin-4-yl]ethyl)carbamoyl]propoxy]-2-[(1-methanesulfonylpyrrol-3-yl)formamido]-N-(4-phenyl-1,3-thiazol-2-yl)butanamide]",> 10 µM,C (‘C’ = Maximum degradation <50%),> 10 µM,< 50%
"CS(=O)(=O)n1ccc(C(=O)N[C@@H](CCOCCCC(=O)NCCOC2CN(c3ccc4c(c3)C(=O)N(C3CCC(=O)NC3=O)C4=O)C2)C(=O)Nc2nc(-c3ccccc3)cs2)c1 (stereo partly drawn) [Compound 278, (2S)-4-(3-[[2-([1-[2-(2,6-dioxopiperidin-3-yl)-1,3-dioxoisoindol-5-yl]azetidin-3-yl]oxy)ethyl]carbamoyl]propoxy)-2-[(1-methanesulfonylpyrrol-3-yl)formamido]-N-(4-phenyl-1,3-thiazol-2-yl)-butanemide]",> 10 µM,C (‘C’ = Maximum degradation <50%),> 10 µM,< 50%
"CS(=O)(=O)n1ccc(C(=O)NC(CCOCCCC(=O)NC2CCN(CCOc3ccc4c(c3)C(=O)N(C3CCC(=O)NC3=O)C4=O)CC2)C(=O)Nc2nc(-c3ccccc3)cs2)c1 [Compound 279, (2S)-4-(3-[[1-(2-[[2-(2,6-dioxopiperidin-3-yl)-1,3-dioxoisoindol-5-yl]oxylethyl)piperidin-4-yl]carbamoyl]propoxy)-2-[(1-methanesulfonylpyrrol-3-yl)formamido]-N-(4-phenyl-1,3-thiazol-2-yl)butanamide; formic acid]",> 10 µM,C (‘C’ = Maximum degradation <50%),> 10 µM,< 50%
"CS(=O)(=O)n1ccc(C(=O)N[C@@H](CCOCCCC(=O)NCCCCCCCCNc2cccc3c2C(=O)N(C2CCC(=O)NC2=O)C3=O)C(=O)Nc2nc(-c3ccccc3)cs2)c1 (stereo partly drawn) [Compound 281, (2S)-4-[3-[(8-[[2-(2,6-dioxopiperidin-3-yl)-1,3-dioxoisoindol-4-yl]amino]octyl)carbamoyl]propoxy]-2-[(1-methanesulfonylpyrrol-3-yl)formamido]-N-(4-phenyl-1,3-thiazol-2-yl)butanamide]",> 10 µM,C (‘C’ = Maximum degradation <50%),> 10 µM,< 50%
"CS(=O)(=O)n1ccc(C(=O)N[C@@H](CCOCCCC(=O)NCCCCCCNc2ccc3c(c2)C(=O)N(C2CCC(=O)NC2=O)C3=O)C(=O)Nc2nc(-c3ccccc3)cs2)c1 (stereo partly drawn) [Compound 283, (2S)-4-[3-[(6-[[2-(2,6-dioxopiperidin-3-yl)-1,3-dioxoisoindol-5-yl]amino]hexyl)carbamoyl]propoxy]-2-[(1-methanesulfonylpyrrol-3-yl)formamido]-N-(4-phenyl-1,3-thiazol-2-yl)butanamide]",> 10 µM,C (‘C’ = Maximum degradation <50%),> 10 µM,< 50%
